US20230416316A1, “ADP-RIBOSE BINDING PEPTIDES WITH ANTI-CANCER ACTIVITY AND USE THEREOF” (PearlsInMires Co., Ltd., priority 2021, published 2023)

Legend:
Type in all cases: cell-based
U-87MG cells [1] = assay: ADP-ribose level by ELISA in U-87MG cells; settings: 0.2-32 μM peptide, 24 hours
Method: (§1) The peptides of Examples 1 to 28 of the present disclosure are designed to inhibit the action of poly ADP-ribose degradation enzyme. In Experimental Example 1, it was confirmed through cell experiments whether poly ADP-ribose was inhibited from being degraded by each of the peptides and accumulated in cancer cells.
5×10^5 U-87MG cells were divided into a group not treated with the peptide of Example and a group treated with 0.2, 1, 2, 4, 8, 16, and 32 μM of the peptide of Example 1 (SEQ ID NO: 1) or Example 8 (SEQ ID NO: 8), and cultured for 24 hours under conditions of 37° C. and 5% CO2 in Eagle's minimum essential medium (EMEM) supplemented with 10% FBS, 100 units/ml penicillin, and 100 μg/ml streptomycin. The medium of the cultured cells was removed, and the samples were treated with RIPA buffer and 1% SDS. The prepared supernatant was used for ELISA analysis to detect and analyze ADP-ribose.

U-87MG cells [2] = assay: Cell viability (MTT, photomicrographs) in U-87MG cells; settings: 16 μM peptide, 24 hours
Method: (§2) After culturing 3×10^3 U-87MG cells in a 96-well plate for 24 hours under conditions of 37° C. and 5% CO2, the cells were either untreated or treated with the peptides of Examples 1 to 28 at a concentration of 16 μM, respectively. Then, the cells were cultured for 24 hours under conditions of 37° C. and 5% CO2, and 10 μl of 3-(4,5-dimethylthiazol-2-yl)-2,5-diphenyltetrazolium bromide reagent was added to each well, followed by reaction for 1 hour. After the reaction was completed, the reagent was removed, 200 μl of dimethyl sulfoxide was added to each well, and the absorbance was measured to confirm cell viability.

MDA-MB-231 cells = assay: Cell viability (MTT, photomicrographs) in MDA-MB-231 cells; settings: 16 μM peptide, 24 hours
Method: as §2, with “culturing 3×10^3 MDA-MB-231 cells in” for “culturing 3×10^3 U-87MG cells in”, “and 5% C02, the cells” for “and 5% CO2, the cells”

Aspc-1 cells [3] = assay: Cell viability (MTT, photomicrographs) in Aspc-1 cells; settings: 16 μM peptide, 24 hours
Method: as §2, with “Aspc-1” for “U-87MG”

H1975 cells [4] = assay: Cell viability (MTT, photomicrographs) in H1975 cells; settings: 16 μM peptide, 24 hours
Method: as §2, with “H1975” for “U-87MG”

Caki-1 cells = assay: Cell viability (MTT, photomicrographs) in Caki-1 cells; settings: 16 μM peptide, 24 hours
Method: as §2, with “Caki-1” for “U-87MG”

Hep G2 cells = assay: Cell viability (MTT, photomicrographs) in Hep G2 cells; settings: 16 μM peptide, 24 hours
Method: 2-4. Change in viability in Hep G2 cells according to treatment with ADP-ribose binding peptide After culturing 3×10^3 Hep G2 cells in a 96-well plate for 24 hours under conditions of 37° C. and 5% CO2, the cells were either untreated or treated with the peptides of Examples 1 to 28 at a concentration of 16 μM, respectively. Then, the cells were cultured for 24 hours under conditions of 37° C. and 5% CO2, and 10 μl of 3-(4,5-dimethylthiazol-2-yl)-2,5-diphenyltetrazolium bromide reagent was added to each well, followed by reaction for 1 hour. After the reaction was completed, the reagent was removed, 200 μl of dimethyl sulfoxide was added to each well, and the absorbance was measured to confirm cell viability.

Aspc-1 cells [5] = assay: ADP-ribose level by ELISA in Aspc-1 cells; settings: 0.2-32 μM peptide, 24 hours
Method: as §1
5×10^5 Aspc-1 cells were divided into a group not treated with the peptide of Example and a group treated with 0.2, 1, 2, 4, 8, 16, and 32 μM of the peptide of Example 3 (SEQ ID NO: 3), and cultured for 24 hours under conditions of 37° C. and 5% CO2 in RPMI-1640 medium supplemented with 10% FBS, 100 units/ml penicillin, and 100 μg/ml streptomycin. The medium of the cultured cells was removed, and the samples were treated with RIPA buffer and 1% SDS. The prepared supernatant was used for ELISA analysis to detect and analyze ADP-ribose.

HCT116 cells = assay: Cell viability (MTT, photomicrographs) in HCT116 cells; settings: 16 μM peptide, 24 hours
Method: as §2, with “HCT116” for “U-87MG”

H1975 cells [6] = assay: ADP-ribose level by ELISA in H1975 cells; settings: 0.2-32 μM peptide, 24 hours
Method: as §1
5×10^5 H1975 cells were divided into a group not treated with the peptide of Example and a group treated with 0.2, 1, 2, 4, 8, 16, and 32 μM of the peptide of Example 2 (SEQ ID NO: 2), and cultured for 24 hours under conditions of 37° C. and 5% CO2 in RPMI-1640 medium supplemented with 10% FBS, 100 units/ml penicillin, and 100 μg/ml streptomycin. The medium of the cultured cells was removed, and the samples were treated with RIPA buffer and 1% SDS. The prepared supernatant was used for ELISA analysis to detect and analyze ADP-ribose.

**Q.** Which results are given for “VPYIIDLQSMHQFRQDIGTMRPVRR (VPYIIDLQSMHQFRQDTGTMRPVRR; ADP-ribose binding peptide) [Example 1]”?
**A.** amount of increase in ADP-ribose (fold change) compared to the control group (U-87MG cells [1]): significant increase in the amount of ADP-ribose in a concentration-dependent manner; cancer cell growth and survival (U-87MG cells [2]): inhibited from growing and killed

**Q.** Which “cancer cell growth and survival” value (MDA-MB-231 cells) does the source give for “GRKKRRQRRRPQRHYTVNLNTYTATDTKGHSLSVQR (ADP-ribose binding peptide with CPP) [Example 26]” here?
**A.** The value was “completely killed”.

**Q.** How did the “cancer cell growth and survival” value (Aspc-1 cells [3]) turn out when “GRKKRRQRRRPQAPYIIDLPSWTQFRQDIGTMRAVRR (GRKKRRQRRRPQAPYIIDLPSWTQFRQDTGTMRAVRR; ADP-ribose binding peptide with CPP) [Example 17]” was run?
**A.** The value was “completely killed”.

**Q.** Which “cancer cell growth and survival” value (U-87MG cells [2]) does the source give for “GRKKRRQRRRPQYNYTVNYTTHTQTNKTSSFCRSVRR (ADP-ribose binding peptide with CPP) [Example 22]” here?
**A.** Its value is “completely killed”.

**Q.** How did the “cancer cell growth and survival” value (H1975 cells [4]) turn out when “GRKKRRQRRRPQRRYTVQFTTMVQVNEETGNRRPVM (ADP-ribose binding peptide with CPP) [Example 23]” was run?
**A.** Its value is “completely killed”.

**Q.** With “GRKKRRQRRRPQFCYLIYENSMSQMNRQTRRRRRLRR (GRKKRRQRRRPQFCYLIYFNSMSQMNRQTRRRRRLRR; ADP-ribose binding peptide with CPP) [Example 19]” as the sequence, how does the “cancer cell growth and survival” value (MDA-MB-231 cells) read?
**A.** The value was “completely killed”.

**Q.** For “GRKKRRQRRRPQTAYEASVCDYLEQQVARGN (ADP-ribose binding peptide with CPP) [Example 28]”, which “cancer cell growth and survival” value (Caki-1 cells) is on record?
**A.** The value was “completely killed”.

**Q.** With “GRKKRRQRRRPQRVYTIDENSMQQINEDTGTARAIQR (GRKKRRQRRRPQRVYTIDFNSMQQINEDTGTARAIQR; ADP-ribose binding peptide with CPP) [Example 18]” as the sequence, how does the “cancer cell growth and survival” value (Hep G2 cells) read?
**A.** The value was “completely killed”.

**Q.** Which results are given for “APYIIDLPSWTQFRQDIGTMRAVRR (APYIIDLPSWTQFRQDTGTMRAVRR; ADP-ribose binding peptide) [Example 3]”?
**A.** cancer cell growth and survival (Aspc-1 cells [3]): inhibited from growing and killed; amount of increase in ADP-ribose (fold change) compared to the control group (Aspc-1 cells [5]): significant increase in the amount of ADP-ribose in a concentration-dependent manner

**Q.** For “WIWYWKNESGTWIQYGEEKDKRKN (ADP-ribose binding peptide) [Example 10]”, which “cancer cell growth and survival” value (Aspc-1 cells [3]) is on record?
**A.** The value was “inhibited from growing and killed”.

**Q.** What about the “amount of increase in ADP-ribose (fold change) compared to the control group” value (Aspc-1 cells [5]) of the same sequence?
**A.** The value was “significant increase in the amount of ADP-ribose in a concentration-dependent manner”.

**Q.** With “GRKKRRQRRRPQGRYDVHLGERMRYAVYWDELASEVRR (ADP-ribose binding peptide with CPP) [Example 27]” as the sequence, how does the “cancer cell growth and survival” value (HCT116 cells) read?
**A.** Its value is “completely killed”.

**Q.** With “APYIIDLQSMNQFRQDIGTLRPVRR (APYIIDLQSMNQFRQDTGTLRPVRR; ADP-ribose binding peptide) [Example 2]” as the sequence, how does the “cancer cell growth and survival” value (H1975 cells [4]) read?
**A.** Its value is “inhibited from growing and killed”.

**Q.** And the “amount of increase in ADP-ribose (fold change) compared to the control group” value (H1975 cells [6])?
**A.** The value was “significant increase in the amount of ADP-ribose in a concentration-dependent manner”.

**Q.** How did the “cancer cell growth and survival” value (Hep G2 cells) turn out when “GRKKRRQRRRPQFLYVADLENMVQYRRNEHGRRRKIKR (ADP-ribose binding peptide with CPP) [Example 25]” was run?
**A.** Its value is “completely killed”.

**Q.** How did the “cancer cell growth and survival” value (H1975 cells [4]) turn out when “GRKKRRQRRRPQAPYIIDLQSMNQFRQDTGTLRPVRR (ADP-ribose binding peptide with CPP) [Example 16]” was run?
**A.** The value was “completely killed”.

**Q.** “YNYTVNYTTHTQTNKTSSFCRSVRR (ADP-ribose binding peptide) [Example 8]” was tested. Which “amount of increase in ADP-ribose (fold change) compared to the control group” value (U-87MG cells [1]) did it give?
**A.** Its value is “significant increase in the amount of ADP-ribose in a concentration-dependent manner”.

**Q.** What about the “cancer cell growth and survival” value (U-87MG cells [2]) of the same sequence?
**A.** Its value is “inhibited from growing and killed”.

**Q.** For “GRKKRRQRRRPQFSYVIDENTMGQINRQTQRQRRVRR (GRKKRRQRRRPQFSYVIDFNTMGQINRQTQRQRRVRR; ADP-ribose binding peptide with CPP) [Example 20]”, which “cancer cell growth and survival” value (HCT116 cells) is on record?
**A.** Its value is “completely killed”.

**Q.** How did the “cancer cell growth and survival” value (Aspc-1 cells [3]) turn out when “GRKKRRQRRRPQWIWYWKNESGTWIQYGEEKDKRKN (ADP-ribose binding peptide with CPP) [Example 24]” was run?
**A.** Its value is “completely killed”.

**Q.** With “GRKKRRQRRRPQVPYIIDLQSMHQFRQDIGTMRPVRR (GRKKRRQRRRPQVPYIIDLQSMHQFRQDTGTMRPVRR; ADP-ribose binding peptide with CPP) [Example 15]” as the sequence, how does the “cancer cell growth and survival” value (U-87MG cells [2]) read?
**A.** The value was “completely killed”.

**Q.** “RRYTVQFTTMVQVNEETGNRRPVM (ADP-ribose binding peptide) [Example 9]” was tested. Which “cancer cell growth and survival” value (H1975 cells [4]) did it give?
**A.** Its value is “inhibited from growing and killed”.

**Q.** And the “amount of increase in ADP-ribose (fold change) compared to the control group” value (H1975 cells [6])?
**A.** The value was “significant increase in the amount of ADP-ribose in a concentration-dependent manner”.

**Q.** Which “cancer cell growth and survival” value (Caki-1 cells) does the source give for “GRKKRRQRRRPQFSYKIDFAEMKQMNLTTGKQRLIKR (ADP-ribose binding peptide with CPP) [Example 21]” here?
**A.** Its value is “completely killed”.
